Reference: patent publication US20030206914A1, “Synthetic antigens for CD1-restricted immune responses” (priority 1997, published 2003)
Entries after “also recorded” stand apart in the source; their conditions may differ. Like-named read-outs stand apart in the source and are kept apart here.

Assays:
APCs = test: Uptake and processing of CD1b-presented antigens by APCs; type: cell-based
Source text: The uptake and processing pathway for CD1b-presented antigens was also defined. Several steps in the presentation of two related classes of CD1b-presented antigens, free and glycosylated mycolates, were examined. […] Thus, larger lipids, such as trehalose dimycolate cannot be broken down into GMM within cells. Given that the hydrophobic groove can accommodate approximately 32 CH2 units when measured in crystalline form, it is likely that the CD1 protein can open to encompass larger alkyl chains or that the chains can protrude from the groove.

[1] = test system: CD8-1 T cell line (CD1c-restricted αβ); test: CD8-1 T cell line response; type: cell-based, human
[2] = test system: LDN5 T cell line (CD1b-restricted); type: cell-based, human
[3] = test system: 14 other T cell lines including SP-F3 and DN6
[4] = test system: mock, CD1a or CD1c transfected C1R cells; test: LDN5 cytolysis assay, control transfectants; type: cell-based, human; conditions: E:T 25:1; similarly treated with antigen
Source text: (§1) There was no response in the absence of antigen.
(§2) Similarly treated mock, CD1a or CD1c transfected cells were not lysed (FIG. 2B). The Na adduct of the fully synthetic GMM containing C32 mycolic acid was detected by ESI-MS analysis to be a single ion peak at m/z 681.6 (FIG. 2C). This synthetic GMM antigen lacks long chain length (compared with C80 mycolic acids of mycobacteria), cyclopropanation, double bonds and R groups, ruling out all of these natural chemical variations of the mycolic acid moiety as necessary antigenic determinants. The discovery of a synthetic CD1-restricted antigen with a simple and well defined structure allowed the systematic study of individual molecular features of the antigen that determined the specificity of the T cell response.
(§3) LDN5 was derived from the same human leprosy skin lesion that gave rise to the previously described LAM reactive T cell line LDN4 (P. A. Sieling, et al. (1995) Science 269:227). Cultures were stimulated initially with autologous GM-CSF and IL-4 treated CD1^+ monocytes and M. leprae sonicate. After establishment of LDN5, cultures were maintained in IL-2 supplemented medium and periodically stimulated with allogenic CD1^+ APCs and M. phlei sonicate (X/1000) containing GMM. […] T cell culture methods, proliferation assays and cytolysis assays were carried out according to the methods described in E. M. Beckman, et al. (1996) J. Immunol. […]

[5] = test system: CD1b transfected C1R lymphoblastoid target cells; test: LDN5 cytolysis assay, CD1b transfected targets; type: cell-based, human; conditions: E:T 25:1; targets cultured with antigen (0.5 mg/ml purified glycolipid; 5 μg/ml synthetic GMM)
Source text: as §1, §2, §3

CD1b = CD1b (Homo sapiens, UniProt P29016); test: Binding of glycolipid to CD1b
CD1b, sequence (P61769 21-119): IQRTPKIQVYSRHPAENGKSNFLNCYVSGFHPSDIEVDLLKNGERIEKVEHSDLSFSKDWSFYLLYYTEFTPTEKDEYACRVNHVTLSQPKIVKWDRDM
CD1b, sequence (P29016 18-303): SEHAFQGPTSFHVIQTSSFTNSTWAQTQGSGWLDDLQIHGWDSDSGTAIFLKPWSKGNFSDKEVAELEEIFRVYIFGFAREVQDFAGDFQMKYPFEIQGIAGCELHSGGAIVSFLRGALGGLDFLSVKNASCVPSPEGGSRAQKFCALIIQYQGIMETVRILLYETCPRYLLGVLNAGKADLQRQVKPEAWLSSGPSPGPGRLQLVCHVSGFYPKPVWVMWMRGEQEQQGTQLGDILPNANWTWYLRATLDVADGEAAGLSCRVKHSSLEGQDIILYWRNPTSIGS
Source text: Thus, CD1b binds to both natural and synthetic GMM but not to an analog that has only one long alkyl chain instead of two short alkyl chains.

[6] = test system: DN1 T cell line (CD1b-restricted, specific for free mycolic acid); test: DN1 T cell line response; type: cell-based, human
Source text: The role of the carbohydrate moiety of the glycolipid in T cell recognition was separately evaluated.
LDN5 was derived from the same human leprosy skin lesion that gave rise to the previously described LAM reactive T cell line LDN4 (P. A. Sieling, et al. (1995) Science 269:227). Cultures were stimulated initially with autologous GM-CSF and IL-4 treated CD1^+ monocytes and M. leprae sonicate. After establishment of LDN5, cultures were maintained in IL-2 supplemented medium and periodically stimulated with allogenic CD1^+ APCs and M. phlei sonicate (X/1000) containing GMM. […] T cell culture methods, proliferation assays and cytolysis assays were carried out according to the methods described in E. M. Beckman, et al. (1996) J. Immunol. 157:2795. All bioassays were done in triplicate and reported as mean +/−standard deviation.

[7] = test system: CD1a, CD1b and MHC class I restricted T cell lines; test: Stimulation of CD1a, CD1b and MHC class I restricted T cell lines (mitogenicity control); type: cell-based
[8] = test system: CD1c-restricted T cell lines; test: Recognition by other CD1c-restricted T cell lines from different donors; type: cell-based, human; conditions: lines derived from different donors
Source text: Based on a survey of known mycobacterial phospholipids, the leading candidate structure for this antigen was that of a glycosyl phosphopolyprenol (GPP). See, Besra, G. S., et al. (1994) Proc. Natl. Acad. Sci. USA 91:12735-12739. The fragmentation pattern was consistent with the identification of the antigenic M. avium as a GPP, presuming that the lipid of m/z 420 was the hexaprenyl component of a fully saturated hexose phosphohexaprenol. To assess this, the ability of the T cell line CD8-1 to recognize purified mycobacterial GPPs was tested. The structure of Myc-PL, a mannosyl phosphopolyprenol esterified to a mycolic acid, had been determined in detail. Besra, G. S., et al. (1994) supra. Pure myc-PL was cleaved with strong base to yield free mycolate and mannosyl phosphoheptaprenol (MPP). Besra, G. S., et al. (1994) supra. […] Rush, J. S., et al.(1993) J. Biol. Chem. 268:13110-13117. […] Thus, these studies established that CD1c-restricted T cells specifically recognized GPPs from four different sources, including both natural and synthetic analogs of this structure.
All three CD1-restricted lines preferentially recognized the α-saturated MPDs typical of eukaryotes more potently than the α-unsaturated GPPs typical of prokaryotes. Krag, S. S. (1998) Biochem. Biophys. Res. Comm. 243:1-5. […]

[9] = cytokine activated macrophages / CD1+ APCs

Question: With “trehalose dimycolate [TDM, reference compound]” as the compound, how does the “cleavage by APCs to antigenic free mycolates or GMM” value (APCs) read?
Answer: unable to cleave

Question: For `CC(C)=CCCC(C)=CCCC(C)=CCCC(C)=CCCC(C)=CCCC(C)=CCCC(C)=CCCC(C)=CCCC(C)=CCCC(C)=CCCC(C)=CCCC(C)=CCCC(C)=CCCC(C)=CCCC(C)=CCCC(C)=CCCC(C)=CCCC(C)=CCCC(C)CCOP(=O)(O)O[C@@H]1O[C@H](CO)[C@@H](O)[C@H](O)[C@@H]1O` (relative stereo) [β-D-mannopyranosyl-1-monophosphoryl-(poly-cis, di-trans, α-saturated) nondecaprenol], which “CD8-1 response to antigen” value [1] is on record?
Answer: responded significantly

Question: `CC(C)=CCCC(C)=CCCC(C)=CCCC(C)=CCCC(C)=CCCC(C)=CCCC(C)=CCOP(=O)(O)O[C@@H]1O[C@H](CO)[C@@H](O)[C@H](O)[C@@H]1O` (relative stereo) [semi-synthetic MPP, β-D-mannopyranosyl-1-monophosphoryl-(poly-cis, di-trans, α-unsaturated) heptaprenol] was tested. Which “CD8-1 response to antigen” value [1] did it give?
Answer: responded significantly

Question: For “α,α trehalose dimycolate [purified cord factors from M. phlei, reference compound]”, which “LDN5 proliferative response to antigen” value [2, 9] is on record?
Answer: not antigenic for LDN5

Question: How did the “proliferative response of other T cell lines” value [3] turn out when glucose monomycolate [GMM] was run?
Answer: not 14 other T cell lines tested

Question: What about the “lysis of mock, CD1a or CD1c transfectants by LDN5” value [4] of the same compound?
Answer: not similarly treated mock, CD1a or CD1c transfectants

Question: And the “LDN5 proliferative response to antigen” value [2]?
Answer: stimulated LDN5; also recorded: proliferated at similar doses

Question: And the “T cell recognition after treating APCs with fixing or endosome pH neutralizing agents” value (APCs)?
Answer: blocked by agents that fix APC membranes or neutralized the pH of endosomes

Question: And the “rate of uptake by APCs” value (APCs)?
Answer: taken up by APCs at the same rate

Question: And the “lysis of CD1b transfected C1R target cells by LDN5” value [5]?
Answer: lysed CD1b transfected C1R lymphoblastoid target cells

Question: And the “binding to CD1b at pH 4.0” value (CD1b; pH 4.0)?
Answer: occurring at pH 4.0

Question: What about the “binding to CD1b at pH 7.0” value (CD1b; pH 7.0) of the same compound?
Answer: not at pH 7.0

Question: What about the “DN1 response to antigen” value [6] of the same compound?
Answer: not to GMM

Question: How did the “LDN5 proliferative response to antigen” value [2] turn out when galactose monomycolate was run?
Answer: responded very weakly or not at all

Question: mannosyl phosphodolichol [MPD] was tested. Which “stimulation of CD1a, CD1b and MHC class I restricted T cell lines” value [7] did it give?
Answer: did not stimulate

Question: What about the “recognition by two other CD1c-restricted T cell lines” value [8] of the same compound?
Answer: recognized MPD

Question: And the “CD8-1 response to antigen” value [1]?
Answer: recognized the 2,3 dihydro analog, mannosyl phosphodolichol (MPD), at much lower concentration

Question: With `CCCCCCCCCCCCCC(O)CC(=O)OC[C@@H](O)[C@@H](O)[C@H](O)[C@@H](O)C=O` (stereo partly drawn) [glucose 6-O-3-hydroxypalmitate] as the compound, how does the “LDN5 proliferative response to antigen” value [2, 9] read?
Answer: did not respond

Question: Which “CD8-1 response to antigen” value [1] does the source give for mannosyl phosphoheptaprenol [MPP] here?
Answer: did respond to the pure MPP

Question: How did the “LDN5 proliferative response to antigen” value [2] turn out when mannose monomycolate was run?
Answer: responded very weakly or not at all

Question: Which “binding to CD1b” value (CD1b; pH not given) does the source give for `CCCCCCCCCCCCCCCCCCCCCCCCCCCCCC(=O)OC[C@H]1OC(O)[C@H](O)[C@@H](O)[C@@H]1O` (stereo partly drawn) [G6T, Glucose-6-o-triacontanoate] here?
Answer: did not bind to CD1b
